In patent publication US20050236004A1, “Healthcare model of wellness” (priority 2004, published 2005):

Key:
[1] = in vivo
[2] = cited from earlier work
[3] = first principles model of blood serum level of a drug over time
Text: The relevant internal variables for the modal of FIG. 18 are: • Ingested amount=I • Blood amount=B
The relevant parameters for the model are: • Digestion rate=κ • Absorption rates=α,β • Conversion rate=γ • Excretion rate=ω
The model equations are then: dI/dt=−αI−κ dB/dt−−ωB−γ+αl+κ−βD dD/dt=κ−βD In most cases, these parameters are not available directly, but most infer them from values such as the excretion half-life T1/2 and the time of maximum blood levels, Tmax. For most medications, the digestion and conversion rates are small or zero, and, as such, it is only necessary to estimate the absorption and excretion rates α and ω. […] The system of equations is then given by: dI/dt=αl dB/dt=−ωB+αl which can be solved exactly for the case of a single ingested amount I0 by converting to matrix form: dV/dt=MV where V the column vector [I,B] and M is the coefficient matrix [−α,0][α,−ω]. This matrix equation has the solution: V=exp(Mt)V0 Where exp(Mt) is the exponentiation of M as a matrix taylor series, and V0 is the initial vector. Inserting M=PDP^−1 where D is a diagonal matrix in the taylor series gives: exp(Mt)=Pexp(Dt)P^−1 The eigenvalues are easily given by setting det(D−λI)=0 giving (−α−λ)(−ω−λ)=0, and so λ=−α,−ω D=[−α,0][0,−ω] Solving for the eigenvectors of comprising P gives the following relationship: P=[ω−α)/α,0][1,1] […]

Cc1onc(-c2ccccc2)c1-c1ccc(S(N)(=O)=O)cc1 [BEXTRA, Valdecoxib]
Cmax/AUC [1]: 0.1089
Cmin ([2]; at 14 day equilibrium): 21.9 ng/mL
Area_Under_Curve(24 hr) ([2]; given value, 24 hr): 1479.0 ng·h/mL
Cmax ([2]; given value): 161.1 ng/mL
Elimination Half-Life ([2]; given value): 8.11 h
Tmax ([2]; given value): 2.25 h
absorption coefficient α ([3]; computed from Tmax by iterative formula): 1.293 h⁻¹
excretion coefficient ω ([3]; ln(2)/half-life): 0.08547 h⁻¹
